This passage reports GI50 and TGI results from PubChem BioAssay (NCI).

Structures are written as SMILES. Several values for one entry are separate records, joined by “and”; a condition that tells them apart may be missing. Equal values may be shown once.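 Following 48 hours of exposure in 96-well plates, responses at five concentrations were used to interpolate endpoints linearly. Abbreviation: GI50, concentration required for 50% inhibition of growth. TGI is the concentration that stops growth completely.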 Where only a bound is given, the exact number is not on record here.

Test systems include A498 renal; A549 NSCLC; HCT-15 colon; HOP-92 NSCLC; HS 578T breast; HT29 colon; NCI-H460 lung; SF-268 CNS.
What all share (assay): growth of human tumour cells (NCI), 48 h

As to `O=C(NO)[C@@H](Cc1ccccc1)NS(=O)(=O)c1ccc(-c2ccccc2)cc1`, the GI50 in the assay on A498 renal was > 25 µM; in the assay with A549 NSCLC, > 25 µM; with HCT-15 colon, > 25 µM; with HOP-92 NSCLC it was 4.7 µM; in the assay with HS 578T breast, > 25 µM; in the assay with HT29 colon, > 25 µM. In addition, the GI50 in the assay on NCI-H460 lung is 13.6 µM; in the assay with SF-268 CNS, 11.6 µM. Besides, the TGI is > 25 µM in the assay on A498 renal; > 25 µM with A549 NSCLC; > 25 µM with HCT-15 colon; 20.9 µM with HOP-92 NSCLC; > 25 µM with HS 578T breast; > 25 µM with HT29 colon. The TGI in the assay on NCI-H460 lung and in the assay with SF-268 CNS was > 25 µM in each case.

Take `O=C(Nc1cccc(-c2ccc(Cl)c(C(F)(F)F)c2)c1)C1CCN(Cc2cccc3cccnc23)CC1`: the GI50 is 1.33 µM in the assay with A498 renal; 1.91 µM in the assay on A549 NSCLC; 1.37 µM with HCT-15 colon; 1.36 µM in the assay with HOP-92 NSCLC; 2.14 µM in the assay on HS 578T breast; 1.21 µM with HT29 colon. The GI50 was 1.87 µM with NCI-H460 lung and 1.79 µM with SF-268 CNS. Besides, the TGI with A498 renal was 2.65 µM; in the assay with A549 NSCLC, 3.85 µM; with HCT-15 colon it was 2.79 µM; with HOP-92 NSCLC, 2.83 µM; with HS 578T breast, 4.94 µM; with HT29 colon, 3.33 µM. Also, the TGI with NCI-H460 lung and in the assay with SF-268 CNS was 3.55 µM throughout.

As for `[N-]=[N+]=NCCCn1c2c(c3ccc([N+](=O)[O-])cc3c1=O)C(=O)c1cc(F)ccc1-2`, the GI50 was 11.8 µM in the assay on A498 renal; 5.14 µM in the assay on A549 NSCLC; 5.86 µM in the assay with HCT-15 colon; 36.5 µM in the assay with HS 578T breast; 1.24 µM with HT29 colon; 0.132 µM with NCI-H460 lung. Also, the TGI was 72.2 µM with A498 renal; > 100 µM in the assay on A549 NSCLC; > 100 µM in the assay on HCT-15 colon; > 100 µM with HS 578T breast; > 35.2 µM with HT29 colon; 2.34 µM in the assay on NCI-H460 lung. Moreover, the TGI in the assay with SF-268 CNS was determined as 4.32 µM.

Regarding `O=C(N/N=C/c1ccc(O)cc1O)c1cccc(Nc2ccnc(C(F)(F)F)c2)c1`, the GI50 in the assay on A498 renal was 12.8 µM; in the assay on A549 NSCLC, 6.44 µM; in the assay with HCT-15 colon it was 2.2 µM; in the assay with HOP-92 NSCLC, 3.44 µM; with HS 578T breast it was 7.71 µM; in the assay on HT29 colon, 5.14 µM. Also, the GI50 with NCI-H460 lung was 3.06 µM; with SF-268 CNS, 0.811 µM. For the same compound, the TGI is > 51 µM in the assay on A498 renal; > 72 µM in the assay on A549 NSCLC; 51.7 µM with HCT-15 colon; > 48.2 µM in the assay on HOP-92 NSCLC; 46.7 µM with HS 578T breast; > 100 µM in the assay on HT29 colon. Moreover, the results for the TGI with NCI-H460 lung and in the assay on SF-268 CNS were 11.3 µM and 30.4 µM, respectively.

Regarding `Oc1ccc(C2c3ccccc3Oc3ccccc32)c2cccnc12`, the GI50 with A498 renal was 1.74 µM; with A549 NSCLC it was 1.79 µM; in the assay with HCT-15 colon it was 0.468 µM; with HOP-92 NSCLC, 1.86 µM; in the assay on HS 578T breast it was 3.45 µM; with HT29 colon, 1.1 µM. Besides, the GI50 in the assay with NCI-H460 lung is 0.47 µM; with SF-268 CNS it was 1.29 µM. Also, the TGI in the assay on A498 renal is 64.4 µM; in the assay with A549 NSCLC it was > 100 µM; in the assay on HCT-15 colon, > 100 µM; in the assay on HOP-92 NSCLC, 98.7 µM; in the assay on HS 578T breast, > 100 µM; with HT29 colon, > 100 µM. In addition, the TGI is 5.1 µM in the assay with NCI-H460 lung and > 100 µM in the assay on SF-268 CNS.

For `OCCNc1nc(Nc2ccc(Cl)c(Cl)c2)nc2ccccc12`, the GI50 is 1.5 µM with A498 renal; 4.2 µM in the assay on A549 NSCLC; 2.84 µM with HCT-15 colon; 2.05 µM in the assay on HOP-92 NSCLC; 6.91 µM with HS 578T breast; 3.39 µM with HT29 colon. In addition, the GI50 in the assay on NCI-H460 lung was 3.71 µM; with SF-268 CNS, 6.78 µM. Besides, the TGI with A498 renal was 13.9 µM; with A549 NSCLC, 18 µM; with HCT-15 colon it was 9.34 µM; with HOP-92 NSCLC, 7.51 µM; with HS 578T breast it was 25.2 µM; in the assay on HT29 colon, 12.1 µM. Further, the TGI in the assay on NCI-H460 lung stood at 16.5 µM; in the assay with SF-268 CNS, 20.8 µM.

For the compound `C/C(=C\c1cc(C(F)(F)F)n(-c2ccc(N)cc2)n1)[C@@H]1C[C@@H]2O[C@]2(C)CCC[C@H](C)[C@H](O)[C@@H](C)C(=O)C(C)(C)[C@@H](O)CC(=O)O1`, the GI50 is 0.0438 µM with A498 renal; 0.0489 µM in the assay with A549 NSCLC; 0.0256 µM in the assay with HCT-15 colon; 0.258 µM in the assay on HOP-92 NSCLC; 0.0287 µM in the assay on HS 578T breast; 0.00621 µM with HT29 colon. The GI50 in the assay on NCI-H460 lung is 0.00733 µM; in the assay with SF-268 CNS it was 0.0502 µM. Further, the TGI is > 11.1 µM in the assay on A549 NSCLC; > 11.1 µM in the assay with HCT-15 colon; > 11.1 µM in the assay on HOP-92 NSCLC; 0.627 µM in the assay with HS 578T breast; 0.339 µM in the assay with HT29 colon; > 5.06 µM in the assay with NCI-H460 lung. In the assay on SF-268 CNS, the TGI is > 11.1 µM.

Take `CC(C(N)C(=O)NC(C(=O)O)C1OC(n2ccc(=O)[nH]c2=O)C(O)C1O)C(O)c1ccc(O)cn1` (stereo not given): the TGI with A549 NSCLC, in the assay on HCT-15 colon, in the assay on HOP-92 NSCLC, in the assay with HS 578T breast, in the assay on HT29 colon and in the assay with NCI-H460 lung was > 100 µM throughout. For the same compound, the TGI in the assay with SF-268 CNS was > 100 µM.

Take `CC(C)=CCC/C(C)=C\CCC1(C)OC(=O)C2CC21` (stereo not given): the TGI in the assay on A498 renal is > 100 µM; in the assay on HCT-15 colon, > 100 µM; in the assay on HS 578T breast, > 100 µM; with HT29 colon, > 100 µM; in the assay with NCI-H460 lung it was > 100 µM and 27 µM; with SF-268 CNS, > 100 µM. Further, the GI50 in the assay with HCT-15 colon was 83.8 µM and 24.7 µM; in the assay with HS 578T breast, > 100 µM and 36.5 µM; with HT29 colon, 72.8 µM and 34.1 µM; in the assay on NCI-H460 lung it was 41.7 µM and 14 µM.

As to `Nc1ccc(-c2cccs2)cc1NC(=O)c1ccc(CCCC(=O)Nc2ccc(C3CC3N)cc2)cc1` (stereo not given), the GI50 in the assay on A498 renal was 20.4 µM; with HCT-15 colon, 5.99 µM; in the assay with HOP-92 NSCLC, 11 µM; with HS 578T breast it was 7.93 µM; in the assay with SF-268 CNS, 2.33 µM. For the same compound, the TGI was 92 µM in the assay with A498 renal; > 100 µM with HCT-15 colon; > 100 µM in the assay with HOP-92 NSCLC; > 100 µM in the assay with HS 578T breast; 5.47 µM in the assay with SF-268 CNS.
